Source: patent US20050143291A1, “Methods and compositions for modulating apoptosis” (priority 2003, published 2005)

How the values were obtained:
CHO cells = assay: Cell cycle analysis (FACS), CHO cells; type: cell-based, Chinese hamster; settings: CHO cells treated with UPR inducer, versus exponentially growing cells
Experimental: (§1) Cell Cycle Analysis—Following seeding, exponentially growing cells were trypsinized at different days and fixed in 70% ethanol. The fixed cells were treated with PBS containing 0.1% (v/v) Triton X-100, 0.2 mg/ml DNase-free RNase, and 20 μg/ml propidium iodide (PI) for 30 min at room temperature. The cell cycle distributions were analyzed by fluorescence-activated cell sorting (FACS) analysis (FACstar; BD Biosciences). The cell cycle distribution measurements were repeated three to four times.
(§2) In both the vector-transfected and GRP78 overexpressing cells, the percentage of G1, S, and G2 cells is similar.

T24/83 cells = assay: Cell cycle analysis (FACS), T24/83 cells; type: cell-based, human; settings: T24/83 cells treated with UPR inducer
Experimental: as §1, §2

Control cells = assay: % Survival (Colony Assay), control cells; type: cell-based
Experimental: (§3) Experiments were also performed to determine the anti-apoptotic effect conferred by overexpression of GRP78. This task was completed.
(§4) Clonogenic Survival Assays—Four thousand cells were seeded into 10-cm-diameter dishes. […] After drug treatment, the cells were grown in fresh medium for 10 to 14 days. The colonies were washed with ice-cold PBS, fixed with methanol, and stained with 10% Giemsa staining solution. The surviving fraction was determined by dividing the number of the surviving colonies in the drug-treated cells by the number of colonies in the non-treated control groups.

[1] = system: GRP78 Overexpression cells; assay: % Survival (Colony Assay), GRP78 overexpression; type: cell-based; settings: for % Survival (Colony Assay): GRP78 Overexpression; for effect of GRP78 overexpression on sensitivity to the drug: GRP78 overexpression versus control
Experimental: as §3, §4

GRP78 [2] = assay: Suppression of GRP78 level by siRNA in MDA-MB-435 cells (Western blot); type: cell-based, human
Source text: (§5) The concentrations of siRNA Grp78 II used were indicated on top.
(§6) This translates to more death in the cells treated with Grp78(II) siRNA than control siRNA targeted against the unrelated green fluorescence protein (FIG. 16).

GRP78 [3] = assay: Specificity of Grp78 siRNA in 293T cells (Western blot of GRP78, GRP94, HSP70); type: cell-based, human; settings: β-actin loading control
Source text: as §5
When blasted against the human genomic sequence, this sequence is unique and in principle, should not affect any other human gene. […] The level of β-actin was used as loading control.

MDA-MB-435 cells = assay: Etoposide-mediated cell death after siRNA in breast cancer cells; type: cell-based, human
Source text: as §6

caspase-7 = assay: In vitro caspase-7 activation assay, cell-free extracts with cytochrome c and dATP; type: biochemical, Chinese hamster
Experimental: FIG. 5, Panel C depicts cytoplasmic extracts prepared from CHO and C.1 cells and incubated with (+) or without (−) 10 μM cytochrome c and the various amounts of dATP (mM) as indicated.
Among the executor caspases, caspase-7 has been reported to be associated with the ER. Upon induction of apoptosis, procaspase-7 (35 kDa) is first converted into a 32-kDa intermediate, which is further processed into active 20- and 11-kDa subunits. […] Upon longer exposure of the autoradiogram, the active 20- and 11-kDa forms were evident in the etoposide-treated cells. When GRP78 was overexpressed, a low level of caspase-7 activation was detected in both the non-treated and etoposide-treated cells. […] In addition, upon addition of cytochrome c, caspase-7 activation was higher in CHO cells than C.1 cells, as evidenced by the increase in the active 20- and 11-kDa forms in the CHO samples compared with the C.1 samples.
The cells were suspended in 5 volumes of a hypotonic buffer (5 mM Tris-HCl, pH 7.4, 5 mM KCl, 1.5 mM MgCl2, 0.1 mM EGTA, pH 8.0, and 1 mM dithiothreitol) in the presence of 2 μg/ml leupeptin, pepstatin, and aprotinin protease inhibitors. After incubation on ice for 20 min, sucrose was added to a final concentration of 250 mM, and the cells were disrupted by douncing eight times in a 1-ml Wheaton Dounce homogenizer. The homogenate was centrifuged twice at […] for 10 min. […]

[4] = target: T1, glucose regulated protein 78 (GRP78), wild-type, as present in CHO cells (endogenous) and C.1 cells … (hamster, UniProt G3I8R9 19-654); assay: co-immunoprecipitation from CHO and C.1 whole cell extracts, Western blot
T1 construct: Protein in cell lysates used for co-immunoprecipitation, not purified; also called BiP; wild-type GRP78
T1 sequence (G3I8R9 19-654 limits assumed): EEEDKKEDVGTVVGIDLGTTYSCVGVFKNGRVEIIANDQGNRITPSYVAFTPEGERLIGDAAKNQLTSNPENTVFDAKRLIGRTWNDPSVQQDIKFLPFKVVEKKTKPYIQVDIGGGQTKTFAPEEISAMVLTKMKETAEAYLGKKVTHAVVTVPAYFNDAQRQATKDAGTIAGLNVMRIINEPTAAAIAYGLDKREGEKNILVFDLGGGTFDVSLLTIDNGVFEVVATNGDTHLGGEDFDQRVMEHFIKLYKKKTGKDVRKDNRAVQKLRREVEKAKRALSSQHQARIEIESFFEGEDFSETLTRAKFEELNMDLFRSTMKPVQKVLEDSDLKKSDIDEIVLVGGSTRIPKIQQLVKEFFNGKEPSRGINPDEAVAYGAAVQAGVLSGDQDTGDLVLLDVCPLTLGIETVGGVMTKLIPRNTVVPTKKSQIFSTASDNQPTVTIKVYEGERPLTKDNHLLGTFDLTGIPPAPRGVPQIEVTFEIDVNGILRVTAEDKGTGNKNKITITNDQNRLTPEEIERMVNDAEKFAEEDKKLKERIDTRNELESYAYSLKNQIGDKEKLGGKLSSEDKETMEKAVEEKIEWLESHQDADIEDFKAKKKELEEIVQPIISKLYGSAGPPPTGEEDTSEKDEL
Experimental: Co-immunoprecipitation Assays—2×10⁶ cells were lysed in 400 μl of extraction buffer (50 mM Tris-HCl, pH 7.5, 150 mM NaCl, 0.5% Nonidet P-40, and 0.5% deoxycholate, with protease inhibitor tablet (Roche Molecular Biochemicals)) and frozen and thawed three times. 500 μg of total protein extract from each sample was pretreated with 50 μl of protein A-Sepharose beads (Sigma) for 1 h at 4° C. prior to incubation with 5 μg of either anti-caspase-7 mouse monoclonal antibody or anticaspase-3 antibodies for 2 h. Following the incubation period, 50 μl of protein A-Sepharose beads was added, and the mixtures were rotated at 4° C. overnight. The beads were then washed five times with the extraction buffer. The immunoprecipitate was released from the washed beads by the addition of 30 μl of 1×SDS-PAGE sample loading buffer (50 mM Tris-HCl, pH 6.8, 100 mM dithiothreitol, 2% SDS, 0.1% bromphenol blue, 10% glycerol), followed by heating at 100° C. for 10 min. The supernatant obtained after centrifugation was resolved by SDS-PAGE and subjected to Western blot analysis to detect the co-immunoprecipitated proteins.

Molecule: C/C=C(/C)C(=O)O[C@H]1C(C)=C2[C@H]([C@@H]1OC(=O)CCCCCCC)[C@@](C)(OC(C)=O)C[C@H](OC(=O)CCC)[C@@]1(O)[C@H]2OC(=O)[C@@]1(C)O [thapsigargin]
- cell cycle distribution (CHO cells): more cells in G1 and a dramatic reduction in S phase cells
- cell cycle distribution (T24/83 cells): a higher percentage of G1 cells and a lower percentage in S phase

Molecule: COc1cccc2c1C(=O)c1c(O)c3c(c(O)c1C2=O)C[C@@](O)(C(=O)CO)C[C@@H]3O[C@H]1C[C@H](N)[C@H](O)[C@H](C)O1 [Doxorubicin]
- % Survival (Colony Assay) (Control cells; doxorubicin 0.2 μg/ml): 80%
- % Survival (Colony Assay) (Control cells; doxorubicin 0.4 μg/ml): 42%
- % Survival (Colony Assay) (Control cells; doxorubicin 0.6 μg/ml): 2%
- % Survival (Colony Assay) (Control cells; doxorubicin 0.8 μg/ml): 0%
- % Survival (Colony Assay) (Control cells; doxorubicin 1.0 μg/ml): 0%
- % Survival (Colony Assay) ([1]; doxorubicin 0.2 μg/ml): 95%
- % Survival (Colony Assay) ([1]; doxorubicin 0.4 μg/ml): 84%
- % Survival (Colony Assay) ([1]; doxorubicin 0.6 μg/ml): 68%
- % Survival (Colony Assay) ([1]; doxorubicin 0.8 μg/ml): 48%
- % Survival (Colony Assay) ([1]; doxorubicin 1.0 μg/ml): 32%
- effect of GRP78 overexpression on sensitivity to the drug [1]: confers resistance

Molecule: Grp78(II) siRNA: siRNA duplex 5′ AAGGTTACCCATGCAGTTGTT 3′ (SEQ ID NO:4) and complement (SEQ ID NO:17) targeting GRP78 (antisense AACAACTGCATGGGTAACCTT; listed as DNA, chemistry not given here; listed as Homo sapiens)
- siRNA concentration that significantly suppresses GRP78 level (GRP78 [2]): ≥ 80 nM
- effect on GRP78, GRP94 and HSP70 levels (GRP78 [3]): only GRP78 level is suppressed
- cell death versus control siRNA against green fluorescence protein (MDA-MB-435 cells): more death

Molecule: N.N.[Cl][Pt][Cl] [Cisplatin]
- % Survival (Colony Assay) (Control cells; cisplatin 3.3 μM): 43%
- % Survival (Colony Assay) (Control cells; cisplatin 6.6 μM): 3.7%
- % Survival (Colony Assay) (Control cells; cisplatin 9.9 μM): 0%
- % Survival (Colony Assay) (Control cells; cisplatin 13.0 μM): 0%
- % Survival (Colony Assay) ([1]; cisplatin 3.3 μM): 60%
- % Survival (Colony Assay) ([1]; cisplatin 6.6 μM): 50%
- % Survival (Colony Assay) ([1]; cisplatin 9.9 μM): 27%
- % Survival (Colony Assay) ([1]; cisplatin 13.0 μM): 16%
- effect of GRP78 overexpression on sensitivity to the drug [1]: confers resistance

Molecule: Nc1ncnc2c1ncn2[C@H]1C[C@H](O)[C@@H](COP(=O)(O)OP(=O)(O)OP(=O)(O)O)O1 [dATP]
- caspase-7 forms in CHO versus C.1 extracts (caspase-7; 1 mM dATP with cytochrome c): equivalent amounts of the 32- and 20-kDa forms
- effect on GRP78-mediated suppression of caspase-7 activation (caspase-7; C.1 extracts in the presence of both cytochrome c and dATP): suppressive effect of the C.1 samples was reversed

Molecule: CC[C@@]1(O)C(=O)OCc2c1cc1n(c2=O)Cc2cc3ccccc3nc2-1 [Camptothecin]
- % Survival (Colony Assay) (Control cells; camptothecin 5 ng/ml): 68%
- % Survival (Colony Assay) (Control cells; camptothecin 20 ng/ml): 0.7%
- % Survival (Colony Assay) (Control cells; camptothecin 60 ng/ml): 0%
- % Survival (Colony Assay) ([1]; camptothecin 5 ng/ml): 82%
- % Survival (Colony Assay) ([1]; camptothecin 20 ng/ml): 22%
- % Survival (Colony Assay) ([1]; camptothecin 60 ng/ml): 2%
- effect of GRP78 overexpression on sensitivity to the drug [1]: confers resistance

Molecule: tunicamycin
- cell cycle distribution (CHO cells): more cells in G1 and a dramatic reduction in S phase cells
- cell cycle distribution (T24/83 cells): a higher percentage of G1 cells and a lower percentage in S phase

B1: procaspase-3 (endogenous, CHO and C.1 cells) (enzyme)
chain: MENTENSVDSKSIKNLEPKIIHGSESMDSGISLDNSYKMDYPEMGLCIIVNNKNFHKSTGMTSRSGTDVDAANLRETFRNLKYGVRNKNDLTREGIVELMRDVSKEDHSKRSSFVCVLLSHGEEGIIFGTNGPVDLKKITNFFRGDRCRSLTGKPKLFIIQACRGTELDCGIETDSGVGDDMACHKIPVEADFLYAYSTAPGYYSWRNSKDGSWFIQSLCAMLKQYADKLEFMHILTRVNRKVATEFESFSFDATFHAKKQIPCIVSMLTKELYFYH
notes: Zymogen form, in whole cell extracts
- binding result [4]: no binding
